Assay results as given in patent publication US12377601B2, “Fast-eluting three-dimensionally molded object, filament for fast-eluting three-dimensionally molded object, and material for fast-eluting three-dimensionally molded object” (ASTELLAS PHARMA INC., priority 2016, dated 2025).
In brackets after ≈: the same amount, converted by molar mass. Read-outs that look alike come from different tables or passages of the source.

Assay: Solubility of the active component in Japanese Pharmacopoeia dissolution test fluids
Type: physicochemical
Protocol: As specific materials, N^2-[(2E)-3-(4-chlorophenyl)-2-propenoyl]-N-[2-oxo-2-(4-{[6-(trifluoromethyl)pyrimidine-4-yl]oxy}piperidine-1-yl)ethyl]-3-pyridine-2-yl-L-alaninamide (manufactured by Astellas Pharma Inc., a solubility to a dissolution test 1st fluid of the Japanese Pharmacopoeia: >100 µM, a solubility to a dissolution test 2nd fluid of the Japanese Pharmacopoeia: 23.2 µM, hereinafter abbreviated as a compound A) was selected as an active component, Poly(vinyl alcohol) [MW 6000] (manufactured by Polysciences, Inc., the same hereinafter unless otherwise specified) was selected as a thermoplastic polymer, maltitol (SweetPearl P200, manufactured by Roquette, the same hereinafter unless otherwise specified) was selected as a sugar alcohol, and Triethyl Citrate (manufactured by Tokyo Chemical Industry Co., Ltd., the same hereinafter unless otherwise specified) was selected as a plasticizer component.

O=C(/C=C/c1ccc(Cl)cc1)N[C@@H](Cc1ccccn1)C(=O)NCC(=O)N1CCC(Oc2cc(C(F)(F)F)ncn2)CC1 [compound A, N^2-[(2E)-3-(4-chlorophenyl)-2-propenoyl]-N-[2-oxo-2-(4-{[6-(trifluoromethyl)pyrimidine-4-yl]oxy}piperidine-1-yl)ethyl]-3-pyridine-2-yl-L-alaninamide]
solubility (dissolution test 1st fluid of the Japanese Pharmacopoeia, pH 1.2, simulated gastric fluid, read-out: solubility to a dissolution test 1st fluid of the Japanese Pharmacopoeia): > 100 µM
solubility (dissolution test 2nd fluid of the Japanese Pharmacopoeia, pH 6.8, aqueous buffer, read-out: solubility to a dissolution test 2nd fluid of the Japanese Pharmacopoeia): 23.2 µM (≈ 14.3 µg/mL)
